For 1 compound, Solubility and Stability results are on record in patent US20140018558A1, “DOCOSAHEXAENOIC ACID (DHA) AS POLYUNSATURATED FREE FATTY ACID IN ITS DIRECTLY COMPRESSIBLE POWDER FORM AND METHOD OF ISOLATION THEREOF” (priority 2011, published 2014).

Data set [1] is described as follows: Solubility of the isolated DHA powder (physical characterisation). The format is physicochemical. The following applies: solvent chloroform; isolated DHA free fatty acid powder. As for the experimental part:
Take 1 liter of fish oil. Maintain temperature to 40-45° C. To it add 1-2% methanolic/ethanolic/propanolic/butanolic sodium or potassium hydroxide 1 liter. Stir for ½ an hour. It separates two layers, discard upper layer which contains lower fatty acids and other impurities. Then, to the lower layer add 750 ml of acetone or ethyl or methyl ketone and stir for one hr and keep aside for ½ hour to precipitate DHA. Filter it and wash 2-3 times with equal quantity of acetone. Evaporate and recover the solvent with temperature not exceeding 40 degree C. This leads to drying of the precipitated DHA at room temperature to form the crystalline mass. The same is passed through the sieve to obtain a dry, directly compressible, free flowing powder of polyunsaturated free fatty acid DHA thereof. The DHA is creamish or off-white crystalline solid powder having melting point 60-62 degree C.
Cool fish oil 12 degree C. to solidify all fatty acids in waxy form and separate it from fish oil. Maintain temperature to 40-45° C. In 1 kg waxy fatty acid, add 1 litre ethanolic or methanolic or propanolic or butanolic sodium or potassium hydroxide 1-2% and stir it for ½ an hour. The solution separates the oily layer which contains lower fatty acids and other impurities then, add ethyl acetate:acetone 90:10 to 10:90 to above solvent. It precipitates DHA in solid form. […]

Data set [2] in a line: Stability of DHA powder at room temperature. The format is physicochemical. The following applies: powder form, no antioxidants added.

Consider `CC/C=C\C/C=C\C/C=C\C/C=C\C/C=C\C/C=C\CCC(=O)O` [DHA, Docosahexaenoic acid], for which, in data set [1], the Solubility entry was “freely soluble in chloroform”. Further, in data set [2], the Stability result is on record as “stable at room temperature”.
